Data published in patent publication US6699685B1, “Method, test media and chromogenic compounds for identifying and differentiating general coliforms and escherichia coli bacteria” (RCR Scientific, Inc., priority 1990, dated 2004).

What was measured:
[1] = test system: β-galactosidase; conditions: known test compound; cited from earlier work
[2] = Colony colour test of chromogenic substrate in medium (Example 1); type: cell-based; conditions: Staphylococcus faecalis
Description: (§1) 6-Chloroindolyl-β-D-galactoside and 5-bromo-4-chloro-3-indolyl-β-D-glucuronide (X-gluc) were each tested separately with 17 different bacterial species including β-galactosidase producing microorganisms, β-glucuronidase producing microorganisms, and microorganisms which produce neither enzyme.

[3] = test system: Acinetobacter calcoaceticus; assay: as above; type: cell-based
Description: as §1

[4] = test system: Bacillus cereus; assay: as above; type: cell-based
Description: as §1

[5] = test system: Bacillus megaterium; assay: as above; type: cell-based
Description: as §1

[6] = test system: Bacillus subtilus; assay: as above; type: cell-based
Description: as §1

[7] = test system: Citrobacter freundii; assay: as above; type: cell-based
Description: as §1

[8] = test system: Enterobacter aerogenes; assay: as above; type: cell-based
Description: as §1

[9] = test system: Enterobacter cloacae; assay: as above; type: cell-based
Description: as §1

[10] = test system: Escherichia coli; assay: as above; type: cell-based; conditions: for colour of colonies grown in medium containing the substrate: E. coli, substrates tested separately
Description: as §1

[11] = test system: Klebsiella pneumoniae; assay: as above; type: cell-based
Description: as §1

[12] = test system: Proteus vulgaris; assay: as above; type: cell-based
Description: as §1

[13] = test system: Pseudomonas aeruginosa; assay: as above; type: cell-based
Description: as §1

[14] = test system: Salmonella typhimurium; assay: as above; type: cell-based
Description: as §1

[15] = test system: Sarcina lutea; assay: as above; type: cell-based
Description: as §1

[16] = test system: Serratia marcescens; assay: as above; type: cell-based
Description: as §1

[17] = test system: Staphylococcus aureus; assay: as above; type: cell-based
Description: as §1

[18] = test system: Staphylococcus epidermidis; assay: as above; type: cell-based
Description: as §1

[19] = test system: β-galactosidase
Description: The chromogenic β-galactosidase substrate is a β-galactoside comprising galactose joined by β-linkage to a substituent that forms an insoluble precipitate of a first color when liberated by the action of β-galactosidase on the substrate.

[20] = biological target: T1, β-glucuronidase (Escherichia coli, UniProt P05804); conditions: Watkins et al. 1988; cited from earlier work
T1 construct: E. coli produces β-galactosidase, but, unlike general (other) coliforms, also produces β-glucuronidase; endogenous in cells; host or cells: Escherichia coli colonies growing in the test medium
T1 sequence (P05804 whole entry): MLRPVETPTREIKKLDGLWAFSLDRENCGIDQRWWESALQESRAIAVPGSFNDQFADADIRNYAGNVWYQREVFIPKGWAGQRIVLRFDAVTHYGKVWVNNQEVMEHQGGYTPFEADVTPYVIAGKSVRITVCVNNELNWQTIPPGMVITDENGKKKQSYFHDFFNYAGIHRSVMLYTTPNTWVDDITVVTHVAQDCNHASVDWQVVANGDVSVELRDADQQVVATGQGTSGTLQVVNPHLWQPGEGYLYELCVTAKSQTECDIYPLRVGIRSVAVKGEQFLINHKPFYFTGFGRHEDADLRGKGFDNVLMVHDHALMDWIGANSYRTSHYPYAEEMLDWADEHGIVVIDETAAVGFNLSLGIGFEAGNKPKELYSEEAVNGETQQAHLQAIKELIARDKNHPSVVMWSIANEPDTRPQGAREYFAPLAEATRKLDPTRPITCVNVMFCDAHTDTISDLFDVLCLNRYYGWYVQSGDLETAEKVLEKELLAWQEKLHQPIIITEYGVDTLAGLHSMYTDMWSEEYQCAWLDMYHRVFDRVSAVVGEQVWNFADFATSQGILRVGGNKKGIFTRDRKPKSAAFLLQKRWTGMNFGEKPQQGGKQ

[21] = biological target: T1, β-glucuronidase; assay: Precipitate formed by substrate upon reaction with enzyme; type: biochemical
Description: The β-glucuronidase substrates and compounds described herein as “glucuronides” include carboxylate salts formed by reacting a suitable base with the glucuronic carboxyl group. Suitable bases include alkali metal or alkaline earth metal hydroxides or carbonates, for example, sodium hydroxide, potassium hydroxide, calcium hydroxide, magnesium hydroxide, and corresponding carbonates; and nitrogen bases such as ammonia and alkylamines such as trimethylamine, triethylamine and cyclohexylamine.

[22] = test system: coliforms; assay: Enzyme inducer added to medium; type: cell-based; conditions: approximately 25 mg/liter of medium; some species of coliforms
Description: It is possible that the enzyme production of the general coliforms may be enhanced by the addition to the medium formulations of very small amounts of substances known as enzyme inducers. The specific inducer for β-galactosidase is available and is known chemically as isopropyl-β-D-thiogalactopyranoside.

For `OC[C@H]1O[C@@H](Oc2c[nH]c3ccc(Br)c(Cl)c23)[C@H](O)[C@@H](O)[C@H]1O` [X-gal, 5-bromo-4-chloro-3-indolyl-β-D-galactopyranoside], the “precipitate formed when acted on by β-galactosidase” value [1] is given as “insoluble indigo blue precipitate”.

For `OC[C@H]1O[C@@H](Oc2c[nH]c3cc(Cl)ccc23)[C@H](O)[C@@H](O)[C@H]1O` [6-chloroindolyl-β-D-galactoside], the “coloured colonies in medium with 6-chloroindolyl-β-D-galactoside” value (from here on “coloured colonies in medium”) [2] was “−”, the “coloured colonies in medium” value [3] was “−” and the “coloured colonies in medium” value [4] was “−”. For the same compound, the “coloured colonies in medium” value [5] was “−”, the “coloured colonies in medium” value [6] was “−” and the “colour of colonies grown in medium containing the substrate” value (from here on “colour of colonies grown”) [7] was “magenta colonies”. The “coloured colonies in medium” value [7] was “+”, the “colour of colonies grown” value [8] was “magenta colonies” and the “coloured colonies in medium” value [8] was “+”. For the same compound, the “colour of colonies grown” value [9] was “magenta colonies”, the “coloured colonies in medium” value [9] was “+” and the “colour of colonies grown” value [10] was “magenta colonies”. The “coloured colonies in medium” value ([10]; Escherichia coli) was “+”, the “colour of colonies grown” value [11] was “magenta colonies” and the “coloured colonies in medium” value [11] was “+”. The “coloured colonies in medium” value [12] was “−”, the “coloured colonies in medium” value [13] was “−” and the “coloured colonies in medium” value [14] was “−”. For the same compound, the “coloured colonies in medium” value [15] was “−”, the “coloured colonies in medium” value [16] was “−” and the “coloured colonies in medium” value [17] was “−”. The “coloured colonies in medium” value [18] was “−” and the “precipitate formed when reacted upon by β-galactosidase” value [19] was “insoluble magenta precipitate”.

In the case of `O=C(O)[C@H]1O[C@@H](Oc2c[nH]c3ccc(Br)c(Cl)c23)[C@H](O)[C@@H](O)[C@@H]1O` [X-gluc, 5-bromo-4-chloro-3-indolyl-β-D-glucuronide, reference compound], the “coloured colonies in X-gluc medium” value [2] is reported as “−”, the “coloured colonies in X-gluc medium” value [3] is reported as “−” and the “coloured colonies in X-gluc medium” value [4] is reported as “−”. For the same compound, the “coloured colonies in X-gluc medium” value [5] was “−”, the “coloured colonies in X-gluc medium” value [6] was “−” and the “coloured colonies in X-gluc medium” value [7] was “−”. For the same compound, the “coloured colonies in X-gluc medium” value [8] was “−”, the “coloured colonies in X-gluc medium” value [9] was “−” and the “colour of colonies grown” value [10] was “indigo blue colonies”. For the same compound, the “coloured colonies in X-gluc medium” value ([10]; Escherichia coli) was “+”, the “coloured colonies in X-gluc medium” value [11] was “−” and the “coloured colonies in X-gluc medium” value [12] was “−”. The “coloured colonies in X-gluc medium” value [13] was “−”, the “coloured colonies in X-gluc medium” value [14] was “−” and the “coloured colonies in X-gluc medium” value [15] was “−”. For the same compound, the “coloured colonies in X-gluc medium” value [16] was “−”, the “coloured colonies in X-gluc medium” value [17] was “−” and the “coloured colonies in X-gluc medium” value [18] was “−”. The “precipitate formed when acted on by β-glucuronidase” value [20] was “insoluble indigo blue precipitate”.

In the case of `O=C(O)[C@H]1O[C@@H](Oc2c[nH]c3cc(Cl)ccc23)[C@H](O)[C@@H](O)[C@@H]1O` [6-chloroindolyl-β-D-glucuronide], the “precipitate formed when reacted upon by β-glucuronidase” value [21] is reported as “insoluble magenta precipitate”.

For `CC(C)S[C@@H]1O[C@H](CO)[C@H](O)[C@H](O)[C@H]1O` [isopropyl-β-D-thiogalactopyranoside], the “effect on speed of enzyme (β-galactosidase) production” value [22] was “positive and noticeable effect on the speed of enzyme production”.
